Data: US12723063B2, “GIPR-agonist compounds” (Eli Lilly and Company, priority 2019, dated 2026)
*1 amine or outer side, *2 acyl side, *3 side chain or, on linkers, in order; H or OH if unused. Where a SMILES comes first, the peptide text is derived from it. Side-chain parts run from the residue outwards. [ ]: non-standard residue; d: D form. The star is where a group is joined. C20 diacid = O=C(O)CCCCCCCCCCCCCCCCCCC(=O)*; C18 diacid = O=C(O)CCCCCCCCCCCCCCCCC(=O)*; γGlu = O=C(O)[C@H](CCC(=O)[*:2])N[*:1]; αMeY = C[C@](N)(Cc1ccc(O)cc1)C(=O)O; 4Pal = N[C@@H](Cc1ccncc1)C(=O)O; αMeL = CC(C)C[C@](C)(N)C(=O)O; Iva = CC[C@](C)(N)C(=O)O; Orn = NCCC[C@H](N)C(=O)O; AEEA = NCCOCCOCC(=O)O; Aib = CC(C)(N)C(=O)O

Experiments:
[1] = target: T1, human GLP-1 receptor (GLP-1R) (Homo sapiens, UniProt P43220); test: cAMP functional assay (HTRF) in HEK293 cells in presence of 0.1% casein; type: cell-based; details: HEK293 cells expressing human GLP-1R, geometric mean, read-out: hGLP1R cAMP Rel EC50 nM (SEM, n)
T1 construct: expressed in transfected cells; host or cells: HEK293
T1 sequence (P43220 24-463): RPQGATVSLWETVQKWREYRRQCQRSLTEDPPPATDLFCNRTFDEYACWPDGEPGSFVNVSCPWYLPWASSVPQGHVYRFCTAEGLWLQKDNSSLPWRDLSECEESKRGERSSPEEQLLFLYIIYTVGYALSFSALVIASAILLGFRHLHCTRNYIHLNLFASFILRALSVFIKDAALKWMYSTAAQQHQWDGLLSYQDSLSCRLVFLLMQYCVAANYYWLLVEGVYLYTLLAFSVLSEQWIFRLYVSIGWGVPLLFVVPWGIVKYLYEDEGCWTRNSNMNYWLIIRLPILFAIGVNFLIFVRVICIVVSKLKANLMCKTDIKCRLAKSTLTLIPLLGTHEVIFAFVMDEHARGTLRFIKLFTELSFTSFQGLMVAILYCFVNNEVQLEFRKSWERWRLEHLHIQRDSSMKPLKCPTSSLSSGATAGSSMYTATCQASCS

human GIPR = target: T2, human GIPR (Homo sapiens, UniProt P48546); test: [125I]-GIP binding, SPA with WGA beads, 0.1% bacitracin; details: geometric mean, read-out: hGIPR Ki
T2 construct: expressed in transfected cells; crude membranes
T2 sequence (P48546 22-466): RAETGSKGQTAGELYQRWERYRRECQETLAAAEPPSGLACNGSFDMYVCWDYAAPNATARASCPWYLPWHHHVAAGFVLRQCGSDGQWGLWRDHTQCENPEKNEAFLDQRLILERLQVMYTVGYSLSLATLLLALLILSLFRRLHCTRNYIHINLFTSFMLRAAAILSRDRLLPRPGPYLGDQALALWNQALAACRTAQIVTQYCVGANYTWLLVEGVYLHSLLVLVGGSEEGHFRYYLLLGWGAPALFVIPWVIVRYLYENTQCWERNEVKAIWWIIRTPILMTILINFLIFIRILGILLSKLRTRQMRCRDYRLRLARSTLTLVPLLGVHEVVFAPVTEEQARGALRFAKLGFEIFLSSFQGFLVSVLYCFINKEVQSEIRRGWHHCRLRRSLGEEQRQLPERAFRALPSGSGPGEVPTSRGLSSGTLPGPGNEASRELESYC
In short: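 Ki values are geometric means (SEM, n independent days), derived from four-parameter nonlinear regression of IC50. Membranes came from hGIPR-expressing CHO cells.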

Row | SMILES | EC50 [1] | Ki (human GIPR)
1 | CC[C@H](C)[C@H](NC(=O)[C@H](Cc1ccccc1)NC(=O)[C@@H](NC(=O)CNC(=O)[C@H](CCC(=O)O)NC(=O)C(C)(C)NC(=O)[C@@H](N)Cc1ccc(O)cc1)[C@@H](C)O)C(=O)N[C@@H](CO)C(=O)N[C@@H](CC(=O)O)C(=O)N[C@@H](Cc1ccc(O)cc1)C(=O)N[C@@H](CO)C(=O)N[C@H](C(=O)N[C@@](C)(CC(C)C)C(=O)N[C@@H](CC(C)C)C(=O)N[C@@H](CC(=O)O)C(=O)N[C@@H](CCC(=O)O)C(=O)N[C@@H](CCCCNC(=O)COCCOCCNC(=O)COCCOCCNC(=O)CC[C@H](NC(=O)CCCCCCCCCCCCCCCCCCC(=O)O)C(=O)O)C(=O)N[C@@H](Cc1c[nH]cn1)C(=O)N[C@@H](CCC(N)=O)C(=O)NC(C)(C)C(=O)N[C@@H](CC(=O)O)C(=O)N[C@@H](Cc1ccccc1)C(=O)N[C@H](C(=O)N[C@@H](CCC(=O)O)C(=O)N[C@@H](Cc1ccncc1)C(=O)N[C@@H](CC(C)C)C(=O)N[C@@H](CC(C)C)C(=O)N[C@@H](C)C(=O)NCC(=O)NCC(=O)N1CCC[C@H]1C(=O)N[C@@H](CO)C(=O)N[C@@H](CO)C(=O)NCC(=O)N[C@@H](C)C(=O)N1CCC[C@H]1C(=O)N1CCC[C@H]1C(=O)N1CCC[C@H]1C(=O)N[C@@H](CO)C(N)=O)C(C)C)[C@@H](C)CC [Example 86] | > 5000 nM | 0.0533 nM
2 | CC[C@H](C)[C@H](NC(=O)[C@H](Cc1ccccc1)NC(=O)[C@@H](NC(=O)CNC(=O)[C@H](CCC(=O)O)NC(=O)C(C)(C)NC(=O)[C@@H](N)Cc1ccc(O)cc1)[C@@H](C)O)C(=O)N[C@@H](CO)C(=O)N[C@@H](CC(=O)O)C(=O)N[C@@H](Cc1ccc(O)cc1)C(=O)N[C@@H](CO)C(=O)N[C@H](C(=O)N[C@@](C)(CC(C)C)C(=O)N[C@@H](CC(C)C)C(=O)N[C@@H](CC(=O)O)C(=O)N[C@@H](CCCN)C(=O)N[C@@H](CCCCNC(=O)COCCOCCNC(=O)COCCOCCNC(=O)CC[C@H](NC(=O)CCCCCCCCCCCCCCCCC(=O)O)C(=O)O)C(=O)N[C@@H](Cc1c[nH]cn1)C(=O)N[C@@H](CCC(N)=O)C(=O)NC(C)(C)C(=O)N[C@@H](CC(=O)O)C(=O)N[C@@H](Cc1ccccc1)C(=O)N[C@H](C(=O)N[C@@H](CCC(=O)O)C(=O)N[C@@H](Cc1ccncc1)C(=O)N[C@@H](CC(C)C)C(=O)N[C@@H](CC(C)C)C(=O)N[C@@H](CCC(=O)O)C(=O)N[C@@H](C)C(=O)NCC(=O)N1CCC[C@H]1C(=O)N[C@@H](CO)C(=O)N[C@@H](CO)C(=O)NCC(=O)N[C@@H](C)C(=O)N1CCC[C@H]1C(=O)N1CCC[C@H]1C(=O)N1CCC[C@H]1C(=O)N[C@@H](CO)C(N)=O)C(C)C)[C@@H](C)CC [Example 87] (H-Y[Aib]EGTFISDYSI[αMeL]LD[Orn]K([AEEA-AEEA-γGlu-C18 diacid])HQ[Aib]DFVE[4Pal]LLEAGPSSGAPPPS-NH2) | > 5000 nM | 0.0538 nM
3 | CC[C@H](C)[C@H](NC(=O)[C@H](CO)NC(=O)[C@H](Cc1ccc(O)cc1)NC(=O)[C@H](CC(=O)O)NC(=O)[C@H](CO)NC(=O)[C@@H](NC(=O)[C@](C)(CC)NC(=O)[C@@H](NC(=O)CNC(=O)[C@H](CCC(=O)O)NC(=O)C(C)(C)NC(=O)[C@@H](N)Cc1ccc(O)cc1)[C@@H](C)O)[C@@H](C)CC)C(=O)N[C@@](C)(CC(C)C)C(=O)N[C@@H](CC(C)C)C(=O)N[C@@H](CC(=O)O)C(=O)N[C@@H](CCCCN)C(=O)N[C@@H](CCCCNC(=O)COCCOCCNC(=O)COCCOCCNC(=O)CC[C@H](NC(=O)CCCCCCCCCCCCCCCCCCC(=O)O)C(=O)O)C(=O)N[C@@H](Cc1c[nH]cn1)C(=O)N[C@@H](CCC(N)=O)C(=O)NC(C)(C)C(=O)N[C@@H](CC(=O)O)C(=O)N[C@@H](Cc1ccccc1)C(=O)N[C@H](C(=O)N[C@@H](CCC(=O)O)C(=O)N[C@@H](Cc1ccncc1)C(=O)N[C@@H](CC(C)C)C(=O)N[C@@H](CC(C)C)C(=O)N[C@@H](CCC(=O)O)C(=O)N[C@@H](C)C(=O)NCC(=O)N1CCC[C@H]1C(=O)N[C@@H](CO)C(=O)N[C@@H](CO)C(=O)NCC(=O)N[C@@H](C)C(=O)N1CCC[C@H]1C(=O)N1CCC[C@H]1C(=O)N1CCC[C@H]1C(=O)N[C@@H](CO)C(N)=O)C(C)C [Example 88] (H-Y[Aib]EGT[Iva]ISDYSI[αMeL]LDKK([AEEA-AEEA-γGlu-C20 diacid])HQ[Aib]DFVE[4Pal]LLEAGPSSGAPPPS-NH2) | > 5000 nM | 0.083 nM
4 | CC[C@H](C)[C@H](NC(=O)[C@H](CC(C)C)NC(=O)[C@@H](NC(=O)CNC(=O)[C@H](CCC(=O)O)NC(=O)C(C)(C)NC(=O)[C@@H](N)Cc1ccc(O)cc1)[C@@H](C)O)C(=O)N[C@@H](CO)C(=O)N[C@@H](CC(=O)O)C(=O)N[C@@H](Cc1ccc(O)cc1)C(=O)N[C@@H](CO)C(=O)N[C@H](C(=O)N[C@@](C)(CC(C)C)C(=O)N[C@@H](CC(C)C)C(=O)N[C@@H](CC(=O)O)C(=O)N[C@@H](CCCCN)C(=O)N[C@@H](CCCCNC(=O)COCCOCCNC(=O)COCCOCCNC(=O)CC[C@H](NC(=O)CCCCCCCCCCCCCCCCCCC(=O)O)C(=O)O)C(=O)N[C@@H](Cc1c[nH]cn1)C(=O)N[C@@H](CCC(N)=O)C(=O)NC(C)(C)C(=O)N[C@@H](CC(=O)O)C(=O)N[C@@H](Cc1ccccc1)C(=O)N[C@H](C(=O)N[C@@H](CCC(=O)O)C(=O)N[C@@H](Cc1ccncc1)C(=O)N[C@@H](CC(C)C)C(=O)N[C@@H](CC(C)C)C(=O)N[C@@H](CCC(=O)O)C(=O)N[C@@H](C)C(=O)NCC(=O)N1CCC[C@H]1C(=O)N[C@@H](CO)C(=O)N[C@@H](CO)C(=O)NCC(=O)N[C@@H](C)C(=O)N1CCC[C@H]1C(=O)N1CCC[C@H]1C(=O)N1CCC[C@H]1C(=O)N[C@@H](CO)C(N)=O)C(C)C)[C@@H](C)CC [Example 89] (H-Y[Aib]EGTLISDYSI[αMeL]LDKK([AEEA-AEEA-γGlu-C20 diacid])HQ[Aib]DFVE[4Pal]LLEAGPSSGAPPPS-NH2) | > 5000 nM | 0.072 nM
5 | CC[C@H](C)[C@H](NC(=O)[C@H](Cc1ccccc1)NC(=O)[C@@H](NC(=O)CNC(=O)[C@H](CCC(=O)O)NC(=O)C(C)(C)NC(=O)[C@@H](N)Cc1ccc(O)cc1)[C@@H](C)O)C(=O)N[C@@H](CO)C(=O)N[C@@H](CC(=O)O)C(=O)N[C@@H](Cc1ccc(O)cc1)C(=O)N[C@@H](CO)C(=O)N[C@H](C(=O)N[C@@](C)(CC(C)C)C(=O)N[C@@H](CC(C)C)C(=O)N[C@@H](CC(=O)O)C(=O)N[C@@H](CCCCN)C(=O)N[C@@H](CCCCNC(=O)COCCOCCNC(=O)COCCOCCNC(=O)CC[C@H](NC(=O)CCCCCCCCCCCCCCCCCCC(=O)O)C(=O)O)C(=O)N[C@@H](Cc1c[nH]cn1)C(=O)N[C@@H](CCC(N)=O)C(=O)NC(C)(C)C(=O)N[C@@H](CC(=O)O)C(=O)N[C@@H](Cc1ccccc1)C(=O)N[C@H](C(=O)N[C@@H](CCC(=O)O)C(=O)N[C@@](C)(Cc1ccc(O)cc1)C(=O)N[C@@H](CC(C)C)C(=O)N[C@@H](CC(C)C)C(=O)N[C@@H](CCC(=O)O)C(=O)N[C@@H](C)C(=O)NCC(=O)N1CCC[C@H]1C(=O)N[C@@H](CO)C(=O)N[C@@H](CO)C(=O)NCC(=O)N[C@@H](C)C(=O)N1CCC[C@H]1C(=O)N1CCC[C@H]1C(=O)N1CCC[C@H]1C(=O)N[C@@H](CO)C(N)=O)C(C)C)[C@@H](C)CC [Example 90] (H-Y[Aib]EGTFISDYSI[αMeL]LDKK([AEEA-AEEA-γGlu-C20 diacid])HQ[Aib]DFVE[αMeY]LLEAGPSSGAPPPS-NH2) | > 5000 nM | 0.129 nM
6 | CC[C@H](C)[C@H](NC(=O)[C@H](Cc1ccccc1)NC(=O)[C@@H](NC(=O)CNC(=O)[C@H](CCC(=O)O)NC(=O)C(C)(C)NC(=O)[C@@H](N)Cc1ccc(O)cc1)[C@@H](C)O)C(=O)N[C@@H](CO)C(=O)N[C@@H](CC(=O)O)C(=O)N[C@@H](Cc1ccc(O)cc1)C(=O)N[C@@H](CO)C(=O)N[C@H](C(=O)N[C@@](C)(CC(C)C)C(=O)N[C@@H](CC(C)C)C(=O)N[C@@H](CC(=O)O)C(=O)N[C@@H](CCCCN)C(=O)N[C@@H](CCCCNC(=O)COCCOCCNC(=O)COCCOCCNC(=O)CC[C@H](NC(=O)CCCCCCCCCCCCCCCCCCC(=O)O)C(=O)O)C(=O)N[C@@H](Cc1c[nH]cn1)C(=O)N[C@@H](CCC(N)=O)C(=O)NC(C)(C)C(=O)N[C@@H](CC(=O)O)C(=O)N[C@@H](Cc1ccccc1)C(=O)N[C@H](C(=O)N[C@@H](CCC(=O)O)C(=O)N[C@@](C)(Cc1ccc(O)cc1)C(=O)N[C@@H](CC(C)C)C(=O)N[C@@H](CC(C)C)C(=O)N[C@@H](CCC(=O)O)C(=O)NCC(=O)NCC(=O)N1CCC[C@H]1C(=O)N[C@@H](CO)C(=O)N[C@@H](CO)C(=O)NCC(=O)N[C@@H](C)C(=O)N1CCC[C@H]1C(=O)N1CCC[C@H]1C(=O)N1CCC[C@H]1C(=O)N[C@@H](CO)C(N)=O)C(C)C)[C@@H](C)CC [Example 91] (H-Y[Aib]EGTFISDYSI[αMeL]LDKK([AEEA-AEEA-γGlu-C20 diacid])HQ[Aib]DFVE[αMeY]LLEGGPSSGAPPPS-NH2) | 530 nM | 0.122 nM
